Reference: US20260159500A1, “KINESIN KIF18A INHIBITOR AND USE THEREOF” (SHANGHAI APEIRON THERAPEUTICS COMPANY LIMITED, priority 2022, published 2026)
Like-named read-outs stand apart in the source and are kept apart here.

Tests used:
[1] = molecular target: T1, Human KIF18A (amino acid sequence 1-417) (Homo sapiens, UniProt Q8NI77); assay: Enzymatic activity test (ADP-Glo, microtubule-stimulated KIF18A ATPase); type: biochemical; conditions: 60 μg/mL microtubules, 25 μM ATP, 2.5 nM KIF18A protein, 120 min at ambient temperature, read-out: KIF18A_nM
T1 construct: purchased Viva Biotech (Shanghai) Ltd
T1 sequence (Q8NI77 1-417): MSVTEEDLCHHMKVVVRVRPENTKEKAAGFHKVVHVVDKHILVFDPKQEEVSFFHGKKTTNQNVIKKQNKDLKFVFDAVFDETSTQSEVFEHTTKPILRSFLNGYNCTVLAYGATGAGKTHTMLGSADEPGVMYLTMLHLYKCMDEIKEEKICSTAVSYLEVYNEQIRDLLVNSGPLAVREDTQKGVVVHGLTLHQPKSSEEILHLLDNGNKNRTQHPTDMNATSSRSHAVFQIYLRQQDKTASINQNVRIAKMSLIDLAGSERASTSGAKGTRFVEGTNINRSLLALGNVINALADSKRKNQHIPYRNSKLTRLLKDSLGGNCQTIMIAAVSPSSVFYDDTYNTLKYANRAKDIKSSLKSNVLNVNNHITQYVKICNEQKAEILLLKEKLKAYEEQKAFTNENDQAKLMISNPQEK
Procedure: Human KIF18A (amino acid sequence 1-417) was purchased from Viva Biotech (Shanghai) Ltd.; the ADP-Glo™ protein kinase kit was acquired from Promega, USA; tubulin was sourced from Cytoskeleton, USA; and the 384-well assay plate and Envision multifunctional microplate reader were obtained from PerkinElmer, USA.
Dissolve the compound powder in DMSO to prepare a stock solution of 10 mM. Then perform gradient dilution for the compounds in the microplate to achieve a final concentration of 0-10 μM. Then, add 2.5 μL each of tubulin, compound, ATP, and KIF18A protein to the microplate in sequence for reaction at ambient temperature for 120 min. The final concentrations in the enzyme reaction are 60 μg/mL for microtubules, 25 μM for ATP, and 2.5 nM for KIF18A protein. After the enzyme reaction, add 10 μL of ADP-GLO reaction reagent to each well and incubate at ambient temperature for 30 min. After that, add 20 μL of detection reagent to each well and incubate at ambient temperature for 30 min in the dark. Finally, perform chemiluminescence detection using the PerkinElmer Envision.

OVCAR3 cells = assay: Cell proliferation activity test in OVCAR3 cells (CyQUANT Direct); type: cell-based; conditions: 3 days incubation, CyQUANT fluorescence detection, read-out: OVCAR-3_IC50_nM
Procedure: OVCAR3 cells were purchased from Nanjing Cobioer Biosciences Co., Ltd. RPMI-1640 medium, fetal bovine serum, and the CyQUANT Direct Cell Proliferation Assay kit were purchased from Thermo Fisher Scientific, USA; 96-well cell culture plates were sourced from Corning, USA.
Culture OVCAR3 cells with RPMI-1640 medium containing 10% fetal bovine serum and incubate them in a 5% CO2 incubator at 37° C. Only cells in the logarithmic growth phase can be used for the test.
Inoculate OVCAR3 cells into a 96-well cell culture plate at 90 μL per well and incubate overnight in a 5% CO2 incubator at 37° C. Dissolve the compound powder in DMSO to prepare a stock solution of 10 mM. Then perform gradient dilution for the compounds in the microplate to achieve a final concentration of 0-10 μM. Add 10 μL of cell culture medium containing compounds to each well to make the final DMSO content 0.2%. Incubate the cell plates in a 5% CO2 incubator at 37° C. for 3 days. Add 100 μL of CyQUANT detection reagent to each well, react at 37° C. for 60 min, and perform fluorescence detection using the PerkinElmer Envision.

HT29 cells = assay: CyQuant cell proliferation activity test in HT29 cells; type: cell-based; conditions: Homo sapiens, HT-29, 72 h, 2000 cells per well, 3 days incubation, IC50 by XLFIT, read-out: HT29_IC50_nM
Procedure: HT29 cells were purchased from Nanjing Cobioer Biosciences Co., Ltd.; RPMI-1640 medium, fetal bovine serum, Trypsin-EDTA (0.25%), 96-well plates, and CyQuant reagents were purchased from ThermoFisher (USA); DMSO was purchased from SIGMA (USA).
Culture HT29 cells with RPMI-1640 containing 10% fetal bovine serum under the condition of 37° C. and 5% CO2. Only cells in the logarithmic growth phase can be used for the test.
Use the CyQuant reagent to detect the proliferation inhibitory activity of compounds on HT29 cells. Adjust the cell density and inoculate 100 μL per well into the 96-well plate (HT29 at 2000 cells per well), then incubate overnight under the condition of 37° C. and 5% CO2. Add compounds of various target concentrations (initial concentration of 3000 nM, 3-fold dilution, 9 concentration gradients), and make the DMSO content 0.2%. Incubate the cell plates at 37° C. and 5% CO2 for 3 days. Incubate with CyQuant reagent for 1 h, read the plate by Envision, and calculate IC50 using XLFIT.

Row | Molecule | IC50 [1] [nM] | IC50 (OVCAR3 cells; Homo sapiens, OVCAR-3, 72 h) [nM] | IC50 (OVCAR3 cells) [nM] | IC50 (HT29 cells) [nM]
1 | O=C(Nc1nc(N2CCC(F)(F)CC2)nc2c1CCC2)c1ccc(NS(=O)(=O)CCO)cc1N1CCC2(CC1)CC2 [Example 1] | 190 | 1030 | – | –
2 | CC(C)(C)OC(=O)N1Cc2nc(NC(=O)c3ccc(NS(=O)(=O)CCO)cc3N3CCC4(CC3)CC4)nc(N3CCC(F)(F)CC3)c2C1 [Example 6, Tert-butyl 4-(4,4-difluoropiperidin-1-yl)-2-(4-(2-hydroxyethylsulfonamido)-2-(6-azaspiro[2.5]octan-6-yl)benzoylamino)-5H-pyrrolo[3,4-d]pyrimidine-6 (7H)-carboxylate] | 241 | 1480 | – | –
3 | N-(5-(4,4-difluoropiperidin-1-yl) imidazo[1,2-c]pyrimidin-7-yl)-6-((2-hydroxyethyl)sulfonamido)-4-(6-azaspiro[2.5]octan-6-yl) nicotinamide [Example 23] | 42 | – | > 10000 | –
4 | O=C(Nc1nc(N2CCC(F)(F)CC2)nc2c1COC2)c1ccc(NS(=O)(=O)CCO)cc1N1CCC2(CC1)CC2 [Example 2, N-(2-(4,4-difluoropiperidin-1-yl)-5,7-dihydrofuro[3,4-d]pyrimidin-4-yl)-4-((2-hydroxyethyl)sulfonamide)-2-(6-azaspiro[2.5]octan-6-yl)benzamide] | 251 | 899 | – | –
5 | O=C(Nc1nc2c(c(N3CCC(F)(F)CC3)n1)CCC2)c1ccc(NS(=O)(=O)CCO)cc1N1CCC2(CC1)CC2 [Example 3, N-(4-(4,4-difluoropiperidin-1-yl)-6,7-dihydro-5H-cyclopenta[d]pyrimidin-2-yl)-4-((2-hydroxyethyl)sulfonamide)-2-(6-azaspiro[2.5]oct-6-yl)benzamide] | 68 | 566 | – | –
6 | O=C(Nc1nc(N2CCC(F)(F)CC2)cc2nccn12)c1ccc(NS(=O)(=O)CCO)cc1N1CCC2(CC1)CC2 [Example 22] | 1940 | – | – | –
7 | Cn1ccc2c(N3CCC(F)(F)CC3)nc(NC(=O)c3ccc(NS(=O)(=O)CCO)cc3N3CCC4(CC3)CC4)cc21 [Example 38] | 131 | – | – | 126
8 | O=C(Nc1cc2nccn2c(N2CCC(F)(F)CC2)n1)c1ccc(NS(=O)(=O)CCO)cc1N1CCC2(CC1)CC2 [Example 21, N-(5-(4,4-difluoropiperidin-1-yl)imidazolo[1,2-c]pyrimidin-7-yl)-4-((2-hydroxyethyl)sulfonamide)-2-(6-azaspiro[2.5]octan-6-yl)benzamide] | – | 358 | – | –
9 | O=C(Nc1nc(N2CCC(F)(F)CC2)c2occc2c1Cl)c1ccc(NS(=O)(=O)CCO)cc1N1CCC2(CC1)CC2 [Example 33, N-(4-chloro-7-(4,4-difluoropiperidin-1-yl)furo[2,3-c]pyridin-5-yl)-4-(2-hydroxyethylsulfonamido)-2-(6-azaspiro[2.5]octan-6-yl)benzamide] | 1640 | – | – | –

Second part, the molecule after the results:

Row | IC50 [1] [nM] | IC50 (OVCAR3 cells; Homo sapiens, OVCAR-3, 72 h) [nM] | IC50 (OVCAR3 cells) [nM] | IC50 (HT29 cells) [nM] | Molecule
10 | 150 | – | – | – | CC(CO)S(=O)(=O)Nc1ccc(C(=O)Nc2cc3cccnc3c(N3[C@H](C)COC[C@H]3C)n2)c(N2CCC3(CC2)CC3)c1 (stereo partly drawn) [Example 102, 2-{6-Azaspiro[2.5]octan-6-yl}-N-[8-((3R,5R)-3,5-dimethylmorpholino)-1,7-naphthyridin-6-yl]-4-[1-hydroxypropane-2-sulfonamido]benzamide]
11 | 2260 | – | – | – | O=C(Nc1cc(N2CCC(F)(F)CC2)c2ncccc2n1)c1ccc(NS(=O)(=O)CCO)cc1N1CCC2(CC1)CC2 [Example 92, N-(4-(4,4-difluoropiperidin-1-yl)-1,5-naphthyridin-2-yl)-4-(2-hydroxyethylsulfonamido)-2-(6-azaspiro[2.5]octan-6-yl)benzamide]
12 | 242 | 4.7 | – | – | C[C@@H](CO)S(=O)(=O)Nc1ccc(C(=O)Nc2cc3sc(N)nc3c(N3CCC(F)(F)CC3)c2F)c(N2CCC3(CC2)CC3)c1 [Example 95, N-[2-amino-4-(4,4-difluoropiperidin-1-yl)-5-fluoro-1,3-benzothiazol-6-yl]-2-{6-azaspiro[2.5]octan-6-yl}-4-[(2S)-1-hydroxypropane-2-sulfonamido]benzamide]
13 | 27 | 15 | – | – | O=C(Nc1cc(N2CCC(F)(F)CC2)c2nccnc2c1)c1ccc(NS(=O)(=O)CCO)cc1N1CCC2(CC1)CC2 [Example 83, N-(8-(4,4-difluoropiperidin-1-yl)quinoxalin-6-yl)-4-((2-hydroxyethyl)sulfonamido)-2-(6-azaspiro[2.5]octan-6-yl)benzamide]
14 | 1490 | – | – | – | O=C(Nc1cc2cccnc2c(C2CCN(CC(F)(F)F)CC2)n1)c1ccc(NS(=O)(=O)CCO)cc1N1CCC2(CC1)CC2 [Example 50, 4-(2-hydroxyethylsulfonamido)-2-(6-azaspiro[2.5]octan-6-yl)-N-(8-(1-(2,2,2-trifluoroethyl)piperidin-4-yl)-1,7-naphthyridin-6-yl)benzamide]
15 | > 3000 | – | – | – | O=C(Nc1cc(N2CCC(F)(F)CC2)nc2cccnc12)c1ccc(NS(=O)(=O)CCO)cc1N1CCC2(CC1)CC2 [Example 93, N-(2-(4,4-difluoropiperidin-1-yl)-1,5-naphthyridin-4-yl)-4-(2-hydroxyethylsulfonamido)-2-(6-azaspiro[2.5]octan-6-yl)benzamide]
16 | > 3000 | – | – | – | CP(C)(=O)c1cnc2c(N3CCC(F)(F)CC3)cc(NC(=O)c3ccc(NS(=O)(=O)CCO)cc3N3CCC4(CC3)CC4)cc2c1 [Example 85, N-(8-(4,4-difluoropiperidin-1-yl)-3-(dimethylphosphoryl)quinolin-6-yl)-4-(2-hydroxyethylsulfonamido)-2-(6-azaspiro[2.5]octan-6-yl)benzamide]
17 | 848 | 745 | – | – | COc1ccc2cc(NC(=O)c3ccc(NS(=O)(=O)CCO)cc3N3CCC4(CC3)CC4)c(F)c(N3CCC(F)(F)CC3)c2n1 [Example 77, N-(8-(4,4-difluoropiperidin-1-yl)-7-fluoro-2-methoxyquinolin-6-yl)-4-((2-hydroxyethyl)sulfonamido)-2-(6-azaspiro[2.5]oct-6-yl)benzamide]
18 | 77 | – | – | – | O=C(Nc1cc2ncccc2c(N2CCC(F)(F)CC2)n1)c1ccc(NS(=O)(=O)CCO)cc1N1CCC2(CC1)CC2 [Example 57]
19 | 255 | 5.9 | – | – | C[C@H](CO)S(=O)(=O)Nc1ccc(C(=O)Nc2cc3sc(N)nc3c(N3CCC(F)(F)CC3)c2F)c(N2CCC3(CC2)CC3)c1 [Example 94, N-[2-amino-4-(4,4-difluoropiperidin-1-yl)-5-fluoro-1,3-benzothiazol-6-yl]-2-{6-azaspiro[2.5]octan-6-yl}-4-[(2R)-1-hydroxypropane-2-sulfonamido]benzamide]
20 | 139 | – | – | – | CC(CO)S(=O)(=O)Nc1ccc(C(=O)Nc2cc3sc(N)nc3c(N3CCC(F)(F)CC3)c2F)c(C2=CCC3(CC2)CC3)c1 (stereo not drawn) [Example 101, N-(2-amino-4-(4,4-difluoropiperidin-1-yl)-5-fluorobenzo[d]thiazol-6-yl)-4-((2-hydroxy-1-methylethyl)sulfonamido)-2-(spiro[2.5]oct-5-en-6-yl)benzamide]
